We go through 13 compounds from patent publication US10745360B2, “Quinoxaline compounds, method for preparing the same and use thereof” (Development Center for Biotechnology, priority 2014, dated 2020).

The target of assay [1] is T1, B-Raf kinase (Homo sapiens, UniProt P15056).
T1 construct: purchased Upstate Biotechnology
The experiment in a line: B-Raf kinase assay ([33P] incorporation into MEK1 K97R). Format: biochemical. The settings on record: recombinant B-Raf, 8 μM ATP, 30 min, 30° C.; read-out: IC50 ranking against B-Raf kinase. The method, then:
Inhibition of kinase activity by a test compound disclosed herein was estimated by quantifying the amount of [^33P] incorporation of a substrate in the presence of the test compound. Standard assay conditions were 5 ng of recombinant B-Raf kinase (Upstate Biotechnology) with 500 ng MEK1(Map-erk kinase; K97R) in the assay buffer (8 μM ATP, 0.5 μCi [^33P]ATP (specific activity 3000 Ci/mmol, PerkinElmer), 50 mM Tris/HCl (pH 7.5), and 1 mM EGTA, 1 mM Na3VO4, 1% 2-mercaptoethanol, 0.1% Brij 35, and 0.2 mg/ml BSA) in a final volume of 25 μL. Reactions were incubated at 30° C. for 30 min and stopped by adding 3% phosphoric acid, harvested onto a 96-well GF/B UniFilter (PerkinElmer) using a unifilter harvester (PerkinElmer), and counted with a TopCount microplate scintillation counter (PerkinElmer). The IC50 values of inhibitors were determined after carrying out assays at 3-fold serially diluted concentrations of each compound in duplication. The results were analyzed using linear regression software (GraphPad Prism 4; GraphPad Software Inc.).

For assay [2], the target named is T2, B-Raf^V600E kinase (Homo sapiens, UniProt P15056, V600E).
T2 construct: purchased Upstate Biotechnology
The experiment in a line: B-Raf V600E kinase assay ([33P] incorporation into MEK1 K97R). As to conditions: recombinant B-Raf^V600E, 8 μM ATP, 30 min, 30° C.; read-out: IC50 ranking against B-Raf^V600E kinase. It counts as biochemical. The method, then: (§1) Inhibition of kinase activity by a test compound disclosed herein was estimated by quantifying the amount of [^33P] incorporation of a substrate in the presence of the test compound. Standard assay conditions were 5 ng of recombinant B-Raf^V600E kinase (Upstate Biotechnology) with 500 ng MEK1 (K97R) in assay buffer (8 μM ATP, 0.5 μCi [^33P]ATP (specific activity 3000 Ci/mmol, PerkinElmer), 50 mM Tris/HCl (pH 7.5), and 1 mM EGTA, 1 mM Na3VO4, 1% 2-mercaptoethanol, 0.1% Brij 35, and 0.2 mg/ml BSA), and the test compound (diluted with 4% DMSO) or DMSO alone (as a control) in a final volume of 25 μL. Reactions were incubated at 30° C. for 30 min and stopped by adding 3% phosphoric acid, harvested onto a 96-well GF/B UniFilter (PerkinElmer) using a unifilter harvester (PerkinElmer), and counted with a TopCount microplate scintillation counter (PerkinElmer). The IC50 values of inhibitors were determined after carrying out assays at 3-fold serially diluted concentrations of each compound in duplication. The results were analyzed using linear regression software (GraphPad Prism 4; GraphPad Software Inc.).

Assay [3] has as its system B-Raf^V600E mutant COLO205 colon cancer cell. The experiment in a line: Cell proliferation assay (CELLTITER 96), COLO205. Format: cell-based. The settings on record: Homo sapiens, COLO 205; COLO205, 72 hours; read-out: Cytotoxicity (IC50 Ranking) COLO205 (B-Raf^V600E). The method, then:
(§2) Inhibition of cell growth by compounds was measured using CELLTITER 96® assay. The cytotoxicity of compounds was evaluated in B-Raf^V600E mutant A375 melanoma cell, B-Raf^V600E mutant COLO205 colon cancer cell, and SK-MEL-2 melanoma cell with wild type B-Raf (B-Raf^wt) and NRASQ^Q61R mutation. A375 and COLO205 cell line were cultured in DMEM containing 10% FCS and incubated at 37° C. in 5% CO2 atmosphere. SK-MEL-2 cell line was cultured in MEM containing 10% FCS and incubated at 37° C. in 5% CO2 atmosphere. A375, COLO205 and SK-MEL-2 cell were seeded into 96-well plates at 2000, 2000, and 4000 cells/well, respectively, and allowed to adhere for overnight. Then, these seeded cells were treated with increasing concentrations of the test compounds and incubated for another 72 hours. At the end of the incubation, CELLTITER 96® Aqueous One Solution Reagent (Promega) was added and incubated for 4 hours. Cell viability was determined by measuring absorbance at 490 nm using EMAX® microplate reader (Molecular Devices).
(§3) The 50% inhibitory concentration (IC50) value was calculated by plotting the percentage of growth inhibition against the concentration of compound, using GraphPad Prism5 software for curve fitting.

Assay [4] concerns SK-MEL-2 melanoma cell with wild type B-Raf (B-Raf^wt) and NRAS^Q61R mutation. Kind of assay: Cell proliferation assay (CELLTITER 96), SK-MEL-2. As to conditions: Homo sapiens; SK-MEL-2, 72 hours; given as bound; read-out: Cytotoxicity (IC50 Ranking) SK-MEL-2 (NRAS^Q61R, B-Raf^wt). Format: cell-based. The method, then: as §2, §3
Assay [5] concerns B-Raf^V600E mutant A375 melanoma cell. Kind of assay: Cell proliferation assay (CELLTITER 96), A375. Format: cell-based. The settings on record: Homo sapiens, A-375; A375, 72 hours; read-out: Cytotoxicity (IC50 Ranking) A375 (B-Raf^V600E). As for the experimental part:
as §2, §3

Assay [6] has as its target T3, C-Raf kinase (Homo sapiens, UniProt P04049).
T3 construct: purchased Upstate Biotechnology
The experiment in a line: C-Raf kinase assay ([33P] incorporation into MEK1 K97R). The settings on record: recombinant C-Raf, 8 μM ATP, 30 min, 30° C.; read-out: IC50 ranking against C-Raf kinase. It counts as biochemical. As for the experimental part:
as §1, with “were 2” for “were 5”, “recombinant C-Raf” for “recombinant B-Raf^V600E”, “ng MEK1(K97R)” for “ng MEK1 (K97R)”

T1 sequence (P15056 whole entry): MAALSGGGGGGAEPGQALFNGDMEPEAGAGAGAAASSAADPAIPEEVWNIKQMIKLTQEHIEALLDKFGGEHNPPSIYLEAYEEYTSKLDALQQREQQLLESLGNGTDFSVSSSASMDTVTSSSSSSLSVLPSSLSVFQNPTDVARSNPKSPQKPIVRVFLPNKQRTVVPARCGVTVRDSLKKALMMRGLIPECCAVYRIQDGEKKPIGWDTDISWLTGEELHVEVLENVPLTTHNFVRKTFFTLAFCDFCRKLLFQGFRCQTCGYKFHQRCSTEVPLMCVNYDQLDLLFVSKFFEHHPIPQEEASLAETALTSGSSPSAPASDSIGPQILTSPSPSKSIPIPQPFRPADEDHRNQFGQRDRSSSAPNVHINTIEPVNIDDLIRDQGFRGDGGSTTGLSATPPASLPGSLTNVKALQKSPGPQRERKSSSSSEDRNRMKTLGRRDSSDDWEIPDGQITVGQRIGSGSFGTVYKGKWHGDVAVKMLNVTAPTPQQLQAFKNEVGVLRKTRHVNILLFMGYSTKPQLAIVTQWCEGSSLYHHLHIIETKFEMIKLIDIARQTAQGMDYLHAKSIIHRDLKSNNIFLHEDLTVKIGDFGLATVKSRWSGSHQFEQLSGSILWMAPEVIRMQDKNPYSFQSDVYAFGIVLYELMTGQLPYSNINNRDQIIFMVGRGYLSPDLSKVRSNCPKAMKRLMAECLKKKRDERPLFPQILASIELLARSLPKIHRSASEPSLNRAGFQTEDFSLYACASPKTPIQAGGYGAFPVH
T2 sequence (P15056 whole entry V600E): as the sequence (P15056 whole entry) above, with V600E counted along it
T3 sequence (P04049 whole entry): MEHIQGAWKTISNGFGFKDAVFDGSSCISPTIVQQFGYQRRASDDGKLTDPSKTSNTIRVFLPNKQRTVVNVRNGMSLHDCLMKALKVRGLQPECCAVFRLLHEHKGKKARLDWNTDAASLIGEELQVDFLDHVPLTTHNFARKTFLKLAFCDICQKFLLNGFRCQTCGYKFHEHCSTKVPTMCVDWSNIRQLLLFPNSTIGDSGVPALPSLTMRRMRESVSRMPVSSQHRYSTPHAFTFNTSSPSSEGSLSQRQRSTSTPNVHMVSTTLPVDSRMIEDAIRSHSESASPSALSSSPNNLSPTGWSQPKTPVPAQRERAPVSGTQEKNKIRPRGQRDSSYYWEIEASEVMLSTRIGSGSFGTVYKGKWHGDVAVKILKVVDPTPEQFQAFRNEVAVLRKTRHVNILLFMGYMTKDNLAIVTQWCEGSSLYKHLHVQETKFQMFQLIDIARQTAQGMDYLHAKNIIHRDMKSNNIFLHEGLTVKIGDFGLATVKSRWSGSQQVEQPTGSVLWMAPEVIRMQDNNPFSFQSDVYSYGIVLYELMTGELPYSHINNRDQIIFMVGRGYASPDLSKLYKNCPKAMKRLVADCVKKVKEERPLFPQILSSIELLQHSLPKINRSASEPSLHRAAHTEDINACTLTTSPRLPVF

A word on the IC50: it is the point on the concentration scale where inhibition reaches its midpoint. Regarding `CCCS(=O)(=O)Nc1ccc(F)c(Nc2ccc3ncc(Nc4c(F)cccc4F)nc3c2)c1F` [compound 2, N1-(3-{[3-(2,6-difluoroanilino)-6-quinoxalinyl]amino}-2,4-difluorophenyl)-1-propanesulfonamide], the IC50 is under 300 nM in assay [1]; under 300 nM in assay [2]; 300 to 1000 nM in assay [3]; over 10000 nM in assay [4]; 300 to 1000 nM in assay [5]; under 300 nM in assay [6].

In the case of `N#Cc1c(Nc2cc(NS(=O)(=O)c3ccccc3)ccc2F)ccc2ncc(N3CCOCC3)nc12` [compound 25, N-(3-(5-cyano-3-morpholinoquinoxalin-6-ylamino)-4-fluorophenyl)benzenesulfonamide], the IC50 in assay [1] was under 300 nM; in assay [2], under 300 nM; in assay [3], under 300 nM; in assay [4] it was over 10000 nM; in assay [5], 300 to 1000 nM; in assay [6] it was under 300 nM.

For `N#Cc1c(Nc2c(F)ccc(NS(=O)(=O)c3ccccc3)c2Cl)ccc2ncc(N3CCOCC3)nc12` [compound 49, N-(2-chloro-3-(5-cyano-3-morpholinoquinoxalin-6-ylamino)-4-fluorophenyl)benzenesulfonamide], the IC50 was under 300 nM in assay [1]; under 300 nM in assay [2]; under 300 nM in assay [3]; over 10000 nM in assay [4]; under 300 nM in assay [5]; under 300 nM in assay [6].

As for `CCCS(=O)(=O)Nc1ccc(F)c(Nc2ccc3ncc(OCC)nc3c2C#N)c1F` [compound 17, N-(3-(5-cyano-3-ethoxyquinoxalin-6-ylamino)-2,4-difluorophenyl)propane-1-sulfonamide], the IC50 in assay [1] is under 300 nM; in assay [2], under 300 nM; in assay [3] it was under 300 nM; in assay [4], over 10000 nM; in assay [5] it was under 300 nM; in assay [6], under 300 nM.

On to `CCCS(=O)(=O)Nc1ccc(F)c(Nc2ccc3ncc(Nc4c(F)ccc(NS(=O)(=O)CCC)c4F)nc3c2)c1F` [compound 1, N1-3-[(3-{2,6-difluoro-3-[(propylsulfonyl)amino]anilino}-6-quinoxalinyl)amino]-2,4-difluorophenyl-1-propanesulfonamide], for which the IC50 was under 300 nM in assay [1]; under 300 nM in assay [2]; 1000 to 10000 nM in assay [3]; over 10000 nM in assay [4]; 1000 to 10000 nM in assay [5]; under 300 nM in assay [6].

`COc1cnc2ccc(Nc3cc(NS(C)(=O)=O)ccc3F)c(C#N)c2n1` [compound 41, N-(3-(5-cyano-3-methoxyquinoxalin-6-ylamino)-4-fluorophenyl)methanesulfonamide]: the IC50 in assay [1] was 1000 to 10000 nM; in assay [2] it was 1000 to 10000 nM; in assay [3], 1000 to 10000 nM; in assay [4], over 10000 nM; in assay [5] it was 1000 to 10000 nM; in assay [6], 1000 to 10000 nM.

For `CCCS(=O)(=O)Nc1ccc(F)c(Nc2ccc3ncc(OCCN(C)C)nc3c2[N+](=O)[O-])c1F` [compound 9, N1-[3-({3-[2-(dimethylamino)ethoxy]-5-nitro-6-quinoxalinyl}amino)-2,4-difluorophenyl]-1-propanesulfonamide], the IC50 is under 300 nM in assay [1]; under 300 nM in assay [2]; under 300 nM in assay [3]; over 10000 nM in assay [4]; under 300 nM in assay [5]; under 300 nM in assay [6].

With `COc1cnc2ccc(Nc3cc(NS(=O)(=O)c4ccccc4)ccc3F)c(C#N)c2n1` [compound 35, N-(3-(5-cyano-3-methoxyquinoxalin-6-ylamino)-4-fluorophenyl)benzenesulfonamide], the IC50 was under 300 nM in assay [1]; under 300 nM in assay [2]; under 300 nM in assay [3]; over 10000 nM in assay [4]; under 300 nM in assay [5]; under 300 nM in assay [6].

For the compound `CCCS(=O)(=O)Nc1ccc(F)c(Nc2ccc3ncc(NC)nc3c2C#N)c1F` [compound 20, N-(3-(5-cyano-3-(methylamino)quinoxalin-6-ylamino)-2,4-difluorophenyl)propane-1-sulfonamide], the 50% inhibitory concentration (IC50) is under 300 nM in assay [1]; under 300 nM in assay [2]; under 300 nM in assay [3]; over 10000 nM in assay [4]; under 300 nM in assay [5]; under 300 nM in assay [6].

For `CCCS(=O)(=O)Nc1ccc(F)c(Nc2ccc3ncc(OC)nc3c2[N+](=O)[O-])c1F` [compound 4, N1-{2,4-difluoro-3-[(3-methoxy-5-nitro-6-quinoxalinyl)amino]phenyl}-1-propanesulfonamide], the IC50 in assay [1] was under 300 nM; in assay [2], under 300 nM; in assay [3], under 300 nM; in assay [4], over 10000 nM; in assay [5], under 300 nM; in assay [6], under 300 nM.

For `CCCS(=O)(=O)Nc1ccc(F)c(Nc2ccc3ncc(OC)nc3c2N)c1F` [compound 3, N1-{3-[(5-amino-3-methoxy-6-quinoxalinyl)amino]-2,4-difluorophenyl}-1-propanesulfonamide], the IC50 in assay [1], in assay [2] and in assay [6] was 300 to 1000 nM in each case.

With `CCCS(=O)(=O)Nc1ccc(F)c(Nc2cc3nc(OC)cnc3cc2C)c1F` [compound 32, N-(2,4-difluoro-3-(3-methoxy-7-methylquinoxalin-6-ylamino)phenyl)propane-1-sulfonamide], the IC50 in assay [1] lay within 1000 to 10000 nM.

In the case of `CCCS(=O)(=O)Nc1cc(Nc2ccc3ncc(OC)nc3c2C#N)ccc1C` [compound 45, N-(5-(5-cyano-3-methoxyquinoxalin-6-ylamino)-2-methylphenyl)propane-1-sulfonamide], the IC50 in assay [1], in assay [2] and in assay [6] was 1000 to 10000 nM throughout.
